Measured values taken from US8796246B2, “9, 10-secopregnane derivative and pharmaceutical” (Nippon Shinyaku Co., Ltd., priority 2006, dated 2014).

What follows are compounds tested on human acute myelogenous leukemia cell line HL-60 (assay: Ability to induce differentiation of HL-60 cells (oxygen radical production after phorbol ester, WST-1)). Details: 72 hours incubation, then WST-1 and phorbol 12,13-didecanoate for 4 hours, absorbance at 450 nm.
Format: cell-based
Description: It is known that the human acute myelogenous leukemia cell line HL-60is differentiated into neutrophil-like cells by active vitamin D or the like. Thus, the cells after the differentiation begin to express a surface marker such as CD11and CD32and, at the same time, they produce an oxygen radical by stimulation with a phorbol ester or the like. In this test, the above-mentioned property was utilized. As an index of the ability to induce differentiation of the HL-60cells, the amount of the oxygen radical produced by stimulation with a phorbol ester was measured, and the compounds of the invention mentioned in Examples were compared with maxacalcitol with respect to the vitamin D3activity thereof. In use of commercial reagents and kits, if any, the indications attached thereto were referred to.
HL-60cells (supplied from ATCC) were seeded on a 96-well plate at 5×10^3cells/100μL/well and a test compound in two-fold dilution series from 10^−7M was added to the second to the twelfth rows (maximum concentration: the second row). The first row was used for blank. After incubation for 72 hours under a moisturized condition in the presence of 5% CO2 at 37° C. using a CO2 incubator, 10 μL of PBS containing 50 mM WST-1 (manufactured by Takara Bio) and 10 μM phorbol 12,13-didecanoate (manufactured by SIGMA) were added to each well followed by further incubation for 4 hours. Absorbance (reference wavelength: […]) at […] of the WST-1 formazane dye generated by conversion from WST-1 by oxygen radical produced from the differentiated HL-60 cells was measured by a Benchmark microplate reader (manufactured by BioRad). An absorbance meter control software MPM3 (manufactured by BioRad) was used and, from a concentration-absorbance curve, the 50%-maximal effective concentration (hereinafter, referred to as “EC50”) of each was determined by a logistic curve regression.

Row | EC50 [nM] | Compound
1 | 0.31 | C=C1C(=CC=C2CCCC3(C)C2CCC3C(C)OC(=O)CC(C)(O)C(F)(F)F)CC(O)CC1O [Compound of Example 4, (1S,3R,20S)-20-(4,4,4-trifluoro-3-hydroxy-3-methylbutanoyloxy)-9,10-secopregna-5Z,7E,10(19)-triene-1,3-diol]
2 | 0.86 | C=C1C(=CC=C2CCCC3(C)C2CCC3C(C)OC(=O)CC(O)C(C)C)CC(O)CC1O [Compound of Example 5, (1S,3R,20S)-20-(3-hydroxy-4-methylpentanoyloxy)-9,10-secopregna-5Z,7E,10(19)-triene-1,3-diol]
3 | 0.38 | C=C1C(=CC=C2CCCC3(C)C2CCC3C(C)OC(=O)CC(O)(C(F)(F)F)C(F)(F)F)CC(O)CC1O [Compound of Example 7, (1S,3R,20S)-20-[4,4,4-trifluoro-3-hydroxy-3-(trifluoromethyl)butanoyloxy]-9,10-secopregna-5Z,7E,10(19)-triene-1,3-diol]
4 | 1.5 | C=C1C(=CC=C2CCCC3(C)C2CCC3C(C)OC(=O)CC(O)(CC)CC)CC(O)CC1O [Compound of Example 12, (1S,3R,20S)-20-(3-ethyl-3-hydroxypentanoyloxy)-9,10-secopregna-5Z,7E,10(19)-triene-1,3-diol]
5 | 2.4 | C=C1C(=CC=C2CCCC3(C)C2CCC3C(C)OC(=O)CN(C)CC(C)(C)O)CC(O)CC1O [Compound of Example 19, (1S,3R,20S)-20-[N-(2-hydroxy-2-methylpropyl)-N-methyl-2-aminoacetyloxy]-9,10-secopregna-5Z,7E,10(19)-triene-1,3-diol]
6 | 4.1 | C=C1C(=CC=C2CCCC3(C)C2CCC3C(C)OC(=O)CC(=O)C(C)(C)O)CC(O)CC1O [Compound of Example 27, (1S,3R,20S)-20-(4-hydroxy-4-methyl-3-oxo-pentanoyloxy)-9,10-secopregna-5Z,7E,10(19)-triene-1,3-diol]
7 | 1.7 | C=C1C(=CC=C2CCCC3(C)C2CCC3C(C)OC(=O)CC(=O)C(O)(CC)CC)CC(O)CC1O [Compound of Example 28, (1S,3R,20S)-20-(4-ethyl-4-hydroxy-3-oxo-hexanoyloxy)-9,10-secopregna-5Z,7E,10(19)-triene-1,3-diol]
8 | 0.53 | C=C1C(O)CC(=CC=C2CCCC3(C)C2CCC3C(C)OC(=O)CCCC(C)(C)O)CC1O [Compound of Example 57, (1R,3R,20S)-2-methylene-19-nor-20-(5-hydroxy-5-methylhexanoyloxy)-9,10-secopregna-5Z,7E-diene-1,3-diol]
9 | 2.2 | (1S,3R,20S)-20-(5-hydroxy-5-methylheptanoyloxy)-9,10-secopregna-5Z,7E,10(19)-triene-1,3-diol [Compound of Example 11]
